pIC50: −log10 of the molar value.

The assay deals with T1, human S6K1 (RPS6KB1) protein, residues 1–421 with the T412E mutation (Homo sapiens, UniProt P23443, T412E).
T1 construct: the human S6K1 (RPS6KB1) protein, residues 1–421 with the T412E mutation; purchased Carna Biosciences (Kobe, Japan)
T1 sequence (P23443 1-421 T412E): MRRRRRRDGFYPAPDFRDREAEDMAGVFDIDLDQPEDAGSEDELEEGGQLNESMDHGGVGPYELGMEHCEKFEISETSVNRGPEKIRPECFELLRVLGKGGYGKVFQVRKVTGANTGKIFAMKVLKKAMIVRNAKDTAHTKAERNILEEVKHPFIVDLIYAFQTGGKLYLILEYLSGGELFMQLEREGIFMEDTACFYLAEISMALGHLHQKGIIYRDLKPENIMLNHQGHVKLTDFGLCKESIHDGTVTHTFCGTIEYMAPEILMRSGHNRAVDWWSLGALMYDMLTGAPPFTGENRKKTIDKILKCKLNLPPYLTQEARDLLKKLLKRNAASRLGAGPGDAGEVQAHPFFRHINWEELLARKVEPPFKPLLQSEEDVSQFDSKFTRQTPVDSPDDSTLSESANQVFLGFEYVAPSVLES
The experiment in a line: Kinase mobility shift assay. The format is biochemical. To be noted: S6K1 residues 1–421, T412E mutation; 2 nM enzyme; 30 min pre-incubation; ATP 0.5 mM; FL-Peptide 26 1.5 μM. The procedure: The mobility shift assay was performed as reported. Briefly, the reaction buffer consisted of 50 mM Hepes (pH 7.4), containing 10 mM MgCl2, 0.01 %(w/v) Brij-35, 1 mM dithiothreitol (DTT), 1 %(v/v) Protease Inhibitor Cocktail Set V [Calbiochem (EMD Millipore), Darmstadt, Germany], 1 %(v/v) Phosphatase Inhibitor Cocktail Set III [Calbiochem (EMD Millipore), Darmstadt, Germany], and 0.6 %(v/v) DMSO. […] The S6K1 protein (final concentration of 2 nM) in the reaction buffer was first incubated with different concentrations of the compounds (0–10 μM) for 30 min. […] The kinase reactions were performed at room temperature, and stopped by the addition of termination buffer [50 mM Hepes buffer (pH 7.4), containing 140 mM EDTA and 0.01 %(w/v) Brij-35]. The phosphorylated and unphosphorylated peptides thus obtained were separated and quantified with a Lab-Chip EZ Reader II (PerkinElmer, MA). Data were fitted using a sigmoidal dose–response regression algorithm in GraphPad Prism (GraphPad Software, La Jolla, CA).
`NS(=O)(=O)c1ccc(NC(=O)COC(=O)c2c3c(nc4ccccc24)CCCCC3)cc1` [Compound F176, 2-oxo-2-[(4-sulfamoylphenyl)amino]ethyl 7,8,9,10-tetrahydro-6H-cyclohepta[b]quinoline-11-carboxylate]: the pIC50 was 6.63.

`C1=C(c2c[nH]c3ccccc23)CCN(c2ncnc3[nH]ncc23)C1` [Compound F109, 4-[4-(1H-indol-3-yl)-3,6-dihydropyridin-1(2H)-yl]-1H-pyrazolo[3,4-d]pyrimidine]: the pIC50 was 7.48. The result for `c1ccc2[nH]c(C3CCN(c4ncnc5[nH]ncc45)CC3)nc2c1` [Compound F108, 4-[4-(1H-benzimidazol-2-yl)piperidin-1-yl]-1H-pyrazolo[3,4-d]pyrimidine] reads 7.09; that for `O=C(Nc1cccc(C(F)(F)F)c1)C1CCN(c2ncnc3[nH]cnc23)CC1` [Compound F179, 1-(9H-purin-6-yl)-N-[3-(trifluoromethyl)phenyl]piperidine-4-carboxamide], 6.69; that for `CC1CCc2nc3ccccc3c(C(=O)OC(C)C(=O)Nc3ccc(S(N)(=O)=O)cc3)c2C1` (centres unmarked) [Compound F177, 1-oxo-1-[(4-sulfamoylphenyl)amino]propan-2-yl-2-methyl-1,2,3,4-tetrahydroacridine-9-carboxylate], 6.25.

The values above are taken from publication PMC4125821, “Crystal structures of the S6K1 kinase domain in complexes with inhibitors” (Journal of Structural and Functional Genomics, 2014).
